Key:
ABHD6 [1] = biological target: T1, ABHD6 (Homo sapiens, UniProt Q9BV23); assay: In vitro competitive activity-based protein profiling (human), ABHD6; format: biochemical; conditions: human PC3
T1 construct: Proteomes (human prefrontal cortex or cell membrane fractions); endogenous in cells; human prefrontal cortex
T1 sequence (Q9BV23 1-337): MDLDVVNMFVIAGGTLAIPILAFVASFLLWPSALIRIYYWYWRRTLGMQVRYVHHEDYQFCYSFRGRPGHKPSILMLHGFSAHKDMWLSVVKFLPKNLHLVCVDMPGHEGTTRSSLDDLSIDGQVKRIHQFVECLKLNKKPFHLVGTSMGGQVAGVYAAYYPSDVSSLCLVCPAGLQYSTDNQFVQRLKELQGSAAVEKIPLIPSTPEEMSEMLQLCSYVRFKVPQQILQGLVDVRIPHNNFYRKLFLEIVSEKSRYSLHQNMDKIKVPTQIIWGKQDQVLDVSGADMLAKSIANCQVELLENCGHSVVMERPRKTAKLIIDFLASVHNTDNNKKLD
Protocol: (§1) In Vitro Competitive Activity-Based Protein Profiling (Human).
(§2) Proteomes (human prefrontal cortex or cell membrane fractions) (50 μL, 1.0-2.0 mg/mL total protein concentration) were preincubated with varying concentrations of inhibitors at 37° C. After 30 min, FP-Rh or JW912 (1.0 μL, 50 μM in DMSO) was added and the mixture was incubated for another 30 min at room temperature. Reactions were quenched with SDS loading buffer (15 μL-4×) and run on SDS-PAGE. Following gel imaging, serine hydrolase activity was determined by measuring fluorescent intensity of gel bands corresponding to MAGL and ABHD6 using ImageJ 1.49 k software.

MAGL [2] = biological target: T2, MAGL (Homo sapiens, UniProt Q99685); assay: In vitro competitive activity-based protein profiling (human), MAGL; format: biochemical; conditions: for inhibition at 1 µM: 1 μM inhibitor, human proteome, 30 min preincubation at 37° C, read-out: MAGL % inh. 1 μM (human); for IC50: human PC3
T2 construct: Proteomes (human prefrontal cortex or cell membrane fractions); from tissue
T2 sequence (Q99685 1-303): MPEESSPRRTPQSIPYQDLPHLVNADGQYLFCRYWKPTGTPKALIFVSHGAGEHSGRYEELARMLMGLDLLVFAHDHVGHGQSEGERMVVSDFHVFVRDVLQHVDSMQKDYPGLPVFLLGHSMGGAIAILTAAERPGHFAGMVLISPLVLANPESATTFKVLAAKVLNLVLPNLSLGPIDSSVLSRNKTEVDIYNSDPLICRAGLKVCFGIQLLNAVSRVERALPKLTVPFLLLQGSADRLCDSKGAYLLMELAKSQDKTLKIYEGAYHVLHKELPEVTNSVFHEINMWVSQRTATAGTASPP
Protocol: as §1, §2

MAGL [3] = biological target: T3, MAGL (Mus musculus, UniProt O35678); assay: Mouse brain proteomes from inhibitor treated mice, MAGL inhibition; format: in vivo; conditions: 5 mg/kg oral gavage, C57Bl/6J mouse brain, 4 h following administration; read-out: MAGL % inh. 5 mg/kg (mouse)
T3 construct: Proteomes (mouse brain membrane fraction or cell lysates); from tissue; host or cells: mouse brain membrane fraction or cell lysates
T3 sequence (O35678 1-303): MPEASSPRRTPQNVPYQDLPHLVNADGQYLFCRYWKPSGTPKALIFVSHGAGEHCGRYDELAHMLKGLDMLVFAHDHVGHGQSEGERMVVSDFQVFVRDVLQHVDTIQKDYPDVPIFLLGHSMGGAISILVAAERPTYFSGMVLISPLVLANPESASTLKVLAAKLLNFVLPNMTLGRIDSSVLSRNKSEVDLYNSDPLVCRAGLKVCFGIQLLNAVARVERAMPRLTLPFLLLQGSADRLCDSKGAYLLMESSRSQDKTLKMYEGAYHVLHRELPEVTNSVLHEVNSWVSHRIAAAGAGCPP
Protocol: Preparation of Mouse Brain Proteomes from Inhibitor Treated Mice.
Inhibitors were administered to wild-type C57Bl/6J by oral gavage in a vehicle of polyethylene glycol. Each animal was sacrificed 4 h following administration and brain proteomes were prepared and analyzed according to previously established methods (See Niphakis, M. J., et al. (2011) ACS Chem. Neurosci. and Long, J. Z., et al. Nat. Chem. Biol. 5:37-44).

MAGL [4] = biological target: T3, MAGL; assay: In vitro competitive activity-based protein profiling (mouse), MAGL; format: biochemical; conditions: for inhibition at 1 µM: 1 μM inhibitor, mouse brain membrane fraction or cell lysates, read-out: MAGL % inh. 1 μM (mouse); for IC50: mouse proteome
Protocol: (§3) In Vitro Competitive Activity-Based Protein Profiling (Mouse).
(§4) Proteomes (mouse brain membrane fraction or cell lysates) (50 μL, 1.0 mg/mL total protein concentration) were preincubated with varying concentrations of inhibitors at 37° C. After 30 min, FP-Rh (1.0 μL, 50 μM in DMSO) was added and the mixture was incubated for another 30 min at 37° C. Reactions were quenched with SDS loading buffer (50 μL-4×) and run on SDS-PAGE. Following gel imaging, serine hydrolase activity was determined by measuring fluorescent intensity of gel bands corresponding to MAGL and ABHD6 using ImageJ 1.49 k software. Data from this assay is shown in Table 1 (% inhibition at 1 μM).

ABHD6 [5] = biological target: T4, ABHD6 (Mus musculus, UniProt Q8R2Y0); assay: In vitro competitive activity-based protein profiling (mouse), ABHD6; format: biochemical; conditions: 1 μM inhibitor, mouse brain membrane fraction or cell lysates; read-out: ABHD6 % inh. 1 μM (mouse)
T4 construct: Proteomes (mouse brain membrane fraction or cell lysates); from tissue; host or cells: mouse brain membrane fraction or cell lysates
T4 sequence (Q8R2Y0 1-336): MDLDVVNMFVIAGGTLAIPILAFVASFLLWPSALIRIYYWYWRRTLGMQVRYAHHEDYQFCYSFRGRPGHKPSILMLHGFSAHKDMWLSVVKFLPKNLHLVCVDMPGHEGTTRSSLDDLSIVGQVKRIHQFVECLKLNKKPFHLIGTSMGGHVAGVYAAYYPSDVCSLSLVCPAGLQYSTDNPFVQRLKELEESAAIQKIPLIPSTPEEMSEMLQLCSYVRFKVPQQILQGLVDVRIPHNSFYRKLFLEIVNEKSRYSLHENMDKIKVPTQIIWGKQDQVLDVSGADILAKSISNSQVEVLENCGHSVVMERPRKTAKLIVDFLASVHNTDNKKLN
Protocol: as §3, §4

| Structure (SMILES) | IC50 (ABHD6 [1]) [µM] | inhibition at 1 µM (MAGL [2]) [%] | IC50 (MAGL [2]) [µM] | inhibition at 5 mg/kg (MAGL [3]) [%] | inhibition at 1 µM (MAGL [4]) [%] | IC50 (MAGL [4]) [µM] | inhibition at 1 µM (ABHD6 [5]) [%] |
| --- | --- | --- | --- | --- | --- | --- | --- |
| O=C(O)CN1CCCC12CN(c1cc(C(F)(F)F)ccc1CN1CCN(C(=O)OC(C(F)(F)F)C(F)(F)F)CC1)C2 [Example 24, 2-(2-(2-((4-(((1,1,1,3,3,3-Hexafluoropropan-2-yl)oxy)carbonyl)piperazin-1-yl)methyl)-5-(trifluoromethyl)phenyl)-2,5-diazaspiro[3.4]octan-5-yl)acetic Acid] | 1 to 10 | ≥ 75 | ≤ 0.1 | ≥ 75 | ≥ 75 | ≤ 0.1 | 0 to 25 |
| O=C(O)[C@@H]1CCCN(c2cc(C(F)(F)F)ccc2CN2CCN(C(=O)OC(C(F)(F)F)C(F)(F)F)CC2)C1 [Example 70, (R)-1-(2-((4-(((1,1,1,3,3,3-hexafluoropropan-2-yl)oxy)carbonyl)piperazin-1-yl)methyl)-5-(trifluoromethyl)phenyl)piperidine-3-carboxylic acid] | 1 to 10 | ≥ 75 | ≤ 0.1 | ≥ 75 | ≥ 75 |  | 0 to 25 |
| CC1(C(=O)O)CCCN(c2cc(C(F)(F)F)ccc2CN2CCN(C(=O)OC(C(F)(F)F)C(F)(F)F)CC2)C1 (stereo not shown) [Example 54, 1-(2-((4-(((1,1,1,3,3,3-hexafluoropropan-2-yl)oxy)carbonyl)piperazin-1-yl)methyl)-5-(trifluoromethyl)phenyl)-3-methylpiperidine-3-carboxylic acid] | 1 to 10 | ≥ 75 | ≤ 0.1 | ≥ 75 | ≥ 75 |  | 50 to 75 |
| O=C(O)[C@@H]1CC(c2cc(C(F)(F)F)ccc2CN2CCN(C(=O)OC(C(F)(F)F)C(F)(F)F)CC2)CN1 (stereo partly drawn) [Example 7, (2S)-4-(2-((4-(((1,1,1,3,3,3-Hexafluoropropan-2-yl)oxy)carbonyl)piperazin-1-yl)methyl)-5-(trifluoromethyl)phenyl)pyrrolidine-2-carboxylic Acid] | 1 to 10 | ≥ 75 | ≤ 0.1 | 25 to 50 | ≥ 75 |  | 25 to 50 |
| O=C(O)CN1CCC2(CCN(c3cc(C(F)(F)F)ccc3CN3CCN(C(=O)OC(C(F)(F)F)C(F)(F)F)CC3)CC2)C1 [Example 18, 2-(8-(2-((4-(((1,1,1,3,3,3-Hexafluoropropan-2-yl)oxy)carbonyl)piperazin-1-yl)methyl)-5-(trifluoromethyl)phenyl)-2,8-diazaspiro[4.5]decan-2-yl)acetic Acid] | 1 to 10 | ≥ 75 | ≤ 0.1 | 0 to 25 | ≥ 75 | ≤ 0.1 | 50 to 75 |
| O=C(O)CN1CCN(c2cc(C(F)(F)F)ccc2CN2CCN(C(=O)OC(C(F)(F)F)C(F)(F)F)CC2)CC1 [Example 42] |  | ≥ 75 |  | 25 to 50 | ≥ 75 | ≤ 0.1 | 0 to 25 |
| O=C(O)CNCC1CCN(c2cc(C(F)(F)F)ccc2CN2CCN(C(=O)OC(C(F)(F)F)C(F)(F)F)CC2)CC1 [Example 61, ((1-(2-((4-(((1,1,1,3,3,3-hexafluoropropan-2-yl)oxy)carbonyl)piperazin-1-yl)methyl)-5-(trifluoromethyl)phenyl)piperidin-4-yl)methyl)glycine] | 1 to 10 | ≥ 75 | ≤ 0.1 |  | ≥ 75 |  | 0 to 25 |
| O=C(OC(C(F)(F)F)C(F)(F)F)N1CCN(Cc2cc(C(F)(F)F)cc(C3(C(=O)O)CCCC3)c2)CC1 [Example 1, 1-(3-((4-(((1,1,1,3,3,3-Hexafluoropropan-2-yl)oxy)carbonyl)piperazin-1-yl)methyl)-5-(trifluoromethyl)phenyl)cyclopentane-1-carboxylic Acid] | 0.1 to 1 | ≥ 75 | ≤ 0.1 |  | ≥ 75 |  | ≥ 75 |
| O=C(OC(C(F)(F)F)C(F)(F)F)N1CCN(Cc2ccc(C(F)(F)F)c(C3(C(=O)O)CCCC3)c2)CC1 [Example 37, 1-(5-((4-(((1,1,1,3,3,3-hexafluoropropan-2-yl)oxy)carbonyl)piperazin-1-yl)methyl)-2-(trifluoromethyl)phenyl)cyclopentane-1-carboxylic acid] | 0.1 to 1 | ≥ 75 | ≤ 0.1 |  | ≥ 75 |  | ≥ 75 |
| O=C(O)C1CCN(c2cc(C(F)F)ccc2CN2CCN(C(=O)OC(C(F)(F)F)C(F)(F)F)CC2)CC1 [Example 72, 1-(5-(difluoromethyl)-2-((4-(((1,1,1,3,3,3-hexafluoropropan-2-yl)oxy)carbonyl)piperazin-1-yl)methyl)phenyl)piperidine-4-carboxylic acid] | 1 to 10 | ≥ 75 | ≤ 0.1 |  | ≥ 75 |  | ≥ 75 |
| CC1(C(=O)O)CCN(c2cc(CN3CCN(C(=O)OC(C(F)(F)F)C(F)(F)F)CC3)cc(C(F)(F)F)c2)CC1 [Example 29, 1-(3-((4-(((1,1,1,3,3,3-Hexafluoropropan-2-yl)oxy)carbonyl)piperazin-1-yl)methyl)-5-(trifluoromethyl)phenyl)-4-methylpiperidine-4-carboxylic Acid] | ≤ 0.1 | ≥ 75 | ≤ 0.1 |  | ≥ 75 |  | ≥ 75 |
| O=C(O)CN1CC2(CCN(c3cc(Cl)ccc3CN3CCN(C(=O)OC(C(F)(F)F)C(F)(F)F)CC3)CC2)C1 [Example 47, 2-(7-(5-chloro-2-((4-(((1,1,1,3,3,3-hexafluoropropan-2-yl)oxy)carbonyl)piperazin-1-yl)methyl)phenyl)-2,7-diazaspiro[3.5]nonan-2-yl)acetic acid] | 1 to 10 | ≥ 75 | ≤ 0.1 |  | ≥ 75 | ≤ 0.1 | 0 to 25 |
| O=C(O)CN1CCN(C(=O)c2cc(C(F)(F)F)ccc2CN2CCN(C(=O)OC(C(F)(F)F)C(F)(F)F)CC2)CC1 [Example 28, 2-(4-(2-((4-(((1,1,1,3,3,3-Hexafluoropropan-2-yl)oxy)carbonyl)piperazin-1-yl)methyl)-5-(trifluoromethyl)benzoyl)piperazin-1-yl)acetic Acid] | 1 to 10 | ≥ 75 | 0.1 to 1 |  | ≥ 75 |  | 25 to 50 |
